Measurements from US20260166128A1, “HUMAN AMYLIN ANALOG, AND DERIVATIVE THEREOF AND USE THEREOF” (priority 2022, published 2026).
Numbered stars: 1 amine (or outer) side, 2 acyl side, 3 side chain; on linkers, the order of the positions; unused ones are H or OH. Bridge positions count the residues as written; N and C are the ends. Square brackets hold non-standard residues; d marks the D form. Side chains are listed from the residue outwards. Peptide text beside a SMILES is read from it. * marks the point of attachment. C20 diacid = O=C(O)CCCCCCCCCCCCCCCCCCC(=O)*; C18 diacid = O=C(O)CCCCCCCCCCCCCCCCC(=O)*; γGlu = O=C(O)[C@H](CCC(=O)[*:2])N[*:1]; βAsp = O=C(O)[C@H](CC(=O)[*:2])N[*:1]; Hyp = O=C(O)[C@@H]1C[C@@H](O)CN1; X3 = O=C(C1CCC(CN[*:1])CC1)[*:2]; Dap = NC[C@H](N)C(=O)O; AEEA = NCCOCCOCC(=O)O

Target: T1, human amylin receptor (Homo sapiens, UniProt O60896+P30988)
T1 construct: host or cells: CHO-K1/Ga15/AMY3 cells, further stably transfected with a CRE-luciferase plasmid
T1 sequence (P30988 25-474): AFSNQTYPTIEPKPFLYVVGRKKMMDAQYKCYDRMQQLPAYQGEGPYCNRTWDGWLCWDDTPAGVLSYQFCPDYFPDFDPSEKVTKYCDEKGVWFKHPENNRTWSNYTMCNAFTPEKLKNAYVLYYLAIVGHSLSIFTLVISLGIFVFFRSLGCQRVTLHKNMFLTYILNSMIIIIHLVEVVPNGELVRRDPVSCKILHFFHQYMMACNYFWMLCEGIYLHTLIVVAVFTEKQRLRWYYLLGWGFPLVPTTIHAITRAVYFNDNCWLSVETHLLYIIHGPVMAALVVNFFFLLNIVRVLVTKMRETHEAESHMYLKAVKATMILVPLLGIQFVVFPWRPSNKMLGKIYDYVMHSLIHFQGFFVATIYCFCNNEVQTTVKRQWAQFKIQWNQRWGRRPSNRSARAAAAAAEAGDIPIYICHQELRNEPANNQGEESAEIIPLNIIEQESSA
T1 sequence (O60896 24-148 partner): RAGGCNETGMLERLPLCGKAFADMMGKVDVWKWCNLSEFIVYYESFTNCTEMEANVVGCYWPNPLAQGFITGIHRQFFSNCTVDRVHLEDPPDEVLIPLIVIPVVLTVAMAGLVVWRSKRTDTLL
Assay: Luciferase assay of amylin derivatives in amylin receptor/CRE-luc CHO cell line
Assay type: cell-based
Conditions: CHO-K1/Ga15/AMY3 CRE-luc cells, 24 hours incubation, F12 medium containing 10% FBS; read-out: EC50
Description: The experiment was intended to detect the activity or efficacy of the amylin derivatives on a human amylin receptor in vitro by luciferase assay.
50 μL of growth medium (F12 medium containing 10% FBS) was added into each well of a white 96-well plate, and the stably transfected amylin/CRE-lue CHO cells were inoculated into the white 96-well plate at a density of about 20,000 cells/well for activity determination.

Row | Compound | EC50 [nM]
1 | CC[C@H](C)[C@H](NC(=O)[C@@H]1CCCN1C(=O)CNC(=O)[C@H](CC(C)C)NC(=O)[C@H](CC(N)=O)NC(=O)[C@H](CC(N)=O)NC(=O)[C@H](CCCCNC(=O)CC[C@H](NC(=O)CCCCCCCCCCCCCCCCC(=O)O)C(=O)O)NC(=O)[C@H](CO)NC(=O)[C@H](Cc1c[nH]cn1)NC(=O)[C@H](CCCNC(=N)N)NC(=O)[C@H](CC(C)C)NC(=O)[C@H](Cc1ccccc1)NC(=O)[C@H](CC(=O)O)NC(=O)[C@H](C)NC(=O)[C@H](CC(C)C)NC(=O)[C@H](CCCNC(=N)N)NC(=O)[C@H](CCC(N)=O)NC(=O)[C@@H](NC(=O)[C@H](C)NC(=O)[C@@H]1CSSC[C@H](NC(=O)[C@@H](N)CCCNC(=N)N)C(=O)N[C@@H](CC(N)=O)C(=O)N[C@@H]([C@@H](C)O)C(=O)N[C@@H](C)C(=O)N[C@@H]([C@@H](C)O)C(=O)N1)[C@@H](C)O)C(=O)N[C@@H](CC(C)C)C(=O)N1CCC[C@H]1C(=O)N1CCC[C@H]1C(=O)N[C@H](C(=O)N[C@@H](CC(N)=O)C(=O)N[C@H](C(=O)NCC(=O)N[C@@H](CO)C(=O)N[C@@H](CC(N)=O)C(=O)N[C@H](C(=O)N1C[C@H](O)C[C@H]1C(N)=O)[C@@H](C)O)C(C)C)[C@@H](C)O [PD096] (H-RCNTATCATQRLADFLRHSK([γGlu-C18 diacid])NNLGPILPPTNVGSNT[Hyp]-NH2; disulfide 2-7) | 0.042
2 | {C20 diacid-γGlu}-KGGGGRCNTATCATQRLADFLRHSSNNLRPILPPTNVGSNTP-NH2 (disulfide 7-12 (inferred)) [PD198] | 0.029

Continued, values first:

Row | EC50 [nM] | Compound
3 | 0.063 | CC[C@H](C)[C@H](NC(=O)[C@@H]1CCCN1C(=O)[C@H](CCCCNC(=O)CC[C@H](NC(=O)CCCCCCCCCCCCCCCCCCC(=O)O)C(=O)O)NC(=O)[C@H](CC(C)C)NC(=O)[C@H](CC(N)=O)NC(=O)[C@H](CC(N)=O)NC(=O)[C@H](CO)NC(=O)[C@H](CO)NC(=O)[C@H](Cc1c[nH]cn1)NC(=O)[C@H](CCCNC(=N)N)NC(=O)[C@H](CC(C)C)NC(=O)[C@H](Cc1ccccc1)NC(=O)[C@H](CC(=O)O)NC(=O)[C@H](C)NC(=O)[C@H](CC(C)C)NC(=O)[C@H](CCCNC(=N)N)NC(=O)[C@H](CCC(N)=O)NC(=O)[C@@H](NC(=O)[C@H](C)NC(=O)[C@@H]1CSSC[C@H](NC(=O)[C@@H](N)CN)C(=O)N[C@@H](CC(N)=O)C(=O)N[C@@H]([C@@H](C)O)C(=O)N[C@@H](C)C(=O)N[C@@H]([C@@H](C)O)C(=O)N1)[C@@H](C)O)C(=O)N[C@@H](CC(C)C)C(=O)N1CCC[C@H]1C(=O)N1CCC[C@H]1C(=O)N[C@H](C(=O)N[C@@H](CC(N)=O)C(=O)N[C@H](C(=O)NCC(=O)N[C@@H](CO)C(=O)N[C@@H](CC(N)=O)C(=O)N[C@H](C(=O)N1C[C@H](O)C[C@H]1C(N)=O)[C@@H](C)O)C(C)C)[C@@H](C)O [PD073] (H-[Dap]CNTATCATQRLADFLRHSSNNLK([γGlu-C20 diacid])PILPPTNVGSNT[Hyp]-NH2; disulfide 2-7)
4 | 0.064 | CC[C@H](C)[C@H](NC(=O)[C@@H]1CCCN1C(=O)C1CCC(CNC(=O)[C@H](CC(C)C)NC(=O)[C@H](CC(N)=O)NC(=O)[C@H](CC(N)=O)NC(=O)[C@H](CO)NC(=O)[C@H](CO)NC(=O)[C@H](Cc2c[nH]cn2)NC(=O)[C@H](CCCNC(=N)N)NC(=O)[C@H](CC(C)C)NC(=O)[C@H](Cc2ccccc2)NC(=O)[C@H](CC(=O)O)NC(=O)[C@H](C)NC(=O)[C@H](CC(C)C)NC(=O)[C@H](CCCNC(=N)N)NC(=O)[C@H](CCC(N)=O)NC(=O)[C@@H](NC(=O)[C@H](C)NC(=O)[C@@H]2CSSC[C@H](NC(=O)[C@H](CCCCN)NC(=O)CC[C@H](NC(=O)CCCCCCCCCCCCCCCCCCC(=O)O)C(=O)O)C(=O)N[C@@H](CC(N)=O)C(=O)N[C@@H]([C@@H](C)O)C(=O)N[C@@H](C)C(=O)N[C@@H]([C@@H](C)O)C(=O)N2)[C@@H](C)O)CC1)C(=O)N[C@@H](CC(C)C)C(=O)N1CCC[C@H]1C(=O)N1CCC[C@H]1C(=O)N[C@H](C(=O)N[C@@H](CC(N)=O)C(=O)N[C@H](C(=O)NCC(=O)N[C@@H](CO)C(=O)N[C@@H](CC(N)=O)C(=O)N[C@H](C(=O)N1CCC[C@H]1C(N)=O)[C@@H](C)O)C(C)C)[C@@H](C)O (stereo partly drawn) [PD173] ({C20 diacid-γGlu}-KCNTATCATQRLADFLRHSSNNL[X3]PILPPTNVGSNTP-NH2; disulfide 2-7)
5 | 0.033 | CC[C@H](C)[C@H](NC(=O)[C@@H]1CCCN1C(=O)CNC(=O)[C@H](CC(C)C)NC(=O)[C@H](CC(N)=O)NC(=O)[C@H](CC(N)=O)NC(=O)[C@H](CO)NC(=O)[C@H](CCCCNC(=O)COCCOCCNC(=O)COCCOCCNC(=O)CC[C@H](NC(=O)CCCCCCCCCCCCCCCCCCC(=O)O)C(=O)O)NC(=O)[C@H](Cc1c[nH]cn1)NC(=O)[C@H](CCCNC(=N)N)NC(=O)[C@H](CC(C)C)NC(=O)[C@H](Cc1ccccc1)NC(=O)[C@H](CC(=O)O)NC(=O)[C@H](C)NC(=O)[C@H](CC(C)C)NC(=O)[C@H](CCCNC(=N)N)NC(=O)[C@H](CCC(N)=O)NC(=O)[C@@H](NC(=O)[C@H](C)NC(=O)[C@@H]1CSSC[C@H](NC(=O)[C@@H](N)CCCNC(=N)N)C(=O)N[C@@H](CC(N)=O)C(=O)N[C@@H]([C@@H](C)O)C(=O)N[C@@H](C)C(=O)N[C@@H]([C@@H](C)O)C(=O)N1)[C@@H](C)O)C(=O)N[C@@H](CC(C)C)C(=O)N1CCC[C@H]1C(=O)N1CCC[C@H]1C(=O)N[C@H](C(=O)N[C@@H](CC(N)=O)C(=O)N[C@H](C(=O)NCC(=O)N[C@@H](CO)C(=O)N[C@@H](CC(N)=O)C(=O)N[C@H](C(=O)N1C[C@H](O)C[C@H]1C(N)=O)[C@@H](C)O)C(C)C)[C@@H](C)O [PD099] (H-RCNTATCATQRLADFLRHK([AEEA-AEEA-γGlu-C20 diacid])SNNLGPILPPTNVGSNT[Hyp]-NH2; disulfide 2-7)
6 | 0.025 | CC[C@H](C)[C@H](NC(=O)[C@@H]1CCCN1C(=O)[C@H](CCCCN)NC(=O)[C@H](CC(C)C)NC(=O)[C@H](CC(N)=O)NC(=O)[C@H](CC(N)=O)NC(=O)[C@H](CO)NC(=O)[C@H](CO)NC(=O)[C@H](Cc1c[nH]cn1)NC(=O)[C@H](CCCNC(=N)N)NC(=O)[C@H](CC(C)C)NC(=O)[C@H](Cc1ccccc1)NC(=O)[C@H](CC(=O)O)NC(=O)[C@H](C)NC(=O)[C@H](CC(C)C)NC(=O)[C@H](CCCNC(=N)N)NC(=O)[C@H](CCC(N)=O)NC(=O)[C@@H](NC(=O)[C@H](C)NC(=O)[C@@H]1CSSC[C@H](NC(=O)[C@H](CCCCN)NC(=O)COCCOCCNC(=O)COCCOCCNC(=O)C[C@H](NC(=O)CCCCCCCCCCCCCCCCCCC(=O)O)C(=O)O)C(=O)N[C@@H](CC(N)=O)C(=O)N[C@@H]([C@@H](C)O)C(=O)N[C@@H](C)C(=O)N[C@@H]([C@@H](C)O)C(=O)N1)[C@@H](C)O)C(=O)N[C@@H](CC(C)C)C(=O)N1CCC[C@H]1C(=O)N1CCC[C@H]1C(=O)N[C@H](C(=O)N[C@@H](CC(N)=O)C(=O)N[C@H](C(=O)NCC(=O)N[C@@H](CO)C(=O)N[C@@H](CC(N)=O)C(=O)N[C@H](C(=O)N1CCC[C@H]1C(N)=O)[C@@H](C)O)C(C)C)[C@@H](C)O [PD195] ({C20 diacid-βAsp-AEEA-AEEA}-KCNTATCATQRLADFLRHSSNNLKPILPPTNVGSNTP-NH2; disulfide 2-7 (inferred))
